{"source": "patent US12383534B2", "about": "“Methods for treating cancer” (REGENTS OF THE UNIVERSITY OF MINNESOTA, priority 2021, dated 2025)", "key": {"CDS cell lines": {"tested_on": "CDS cell lines", "settings": "screens of FDA-approved anticancer molecules; cited from earlier work"}, "[1]": {"tested_on": "wide spectrum of cancer cell lines", "settings": "cited from earlier work"}, "p300 and CBP": {"tested_on": "p300 and CBP", "settings": "in vitro and in vivo; cited from earlier work"}, "[2]": {"tested_on": "CIC-DUX4 target genes ETV1, 4, and 5", "assay": "RT-qPCR for CIC-DUX4 target genes in NCC-CDS-X1 cells", "assay_type": "cell-based, human", "settings": "NCC-CDS-X1, 24 hours, highest concentration", "protocol": "RNA was extracted using an RNA extraction kit (Zymo) and cDNA was made using 0.5 μg total RNA with oligo-dT primer and Verso cDNA Synthesis Kit (Thermo Scientific) following the manufacturer's instructions. qPCRs were performed by using Premix Ex Taq (Probe qPCR, Takara) or SYBR-green. Gene expression levels were normalized to that of GAPDH and analyzed with 7500 System Software using the ACT method (Applied Biosystems). RNA-seq library preparation was done with 500 ng total RNA from NCC-CDS-X1 cells treated for 4 or 24 hours with iP300w (0.3 μM) using the Swift Rapid RNA Library Kit (SwiftBioscience). 36 base paired-end sequencing was performed on an Illumina NextSeq instrument at the University of Minnesota Genomics Center.\nNext, the effect of the stereoisomers on the CIC-DUX4 target genes in cells cultured with the compounds for 24 hours was analyzed."}, "[3]": {"tested_on": "NCC-CDS-X1 cells (CIC-DUX4 sarcoma cell line)", "assay": "Cell viability (ATP) assay in NCC-CDS-X1 cells", "assay_type": "cell-based, human", "protocol": "Basal media were purchased from HyClone, fetal bovine serum (FBS) was from PeakSerum (Ps-FB3, lot 293Q16), and Glutamax (Glu) and Penicillin/Streptomycin (P/S) were from GIBCO. NCC-CDS-X1 (CIC-DUX4 sarcoma cell line, a generous gift from Tadashi Kondo) cell line was cultured in RPMI with 10% FBS, Glu and P/S, Kitra-SRS (CIC-DUX4 sarcoma cell line, a generous gift from Hidetatsu Otani), 3T3, 293T and C2C12 cell lines were cultured in DMEM/10% FBS/Glu/P/S. The immortalized human myoblast LHCN-M2 cell line was cultured in proliferation medium: F10 supplemented with 20% FBS, 2-mercaptoethanol 1× (GIBCO), 10^−9 M dexamethasone (Sigma), 10 ng/mL bFGF (Peprotech), and Glu/P/S. All cells were cultured at 37° C. in a 5% CO2 atmosphere.\nCell lines were plated in a 96 well dish (1×10^5 cells/well), and the following day were treated with iP300w or its stereoisomers. ATP assays were performed using CellTiter-Glo® Luminescent Cell Viability Assay (Promega) according to the manufacturer's instructions. Luminescence was analyzed on POLARstar Optima Microplate Reader (BMG Labtech, Offenburg, Germany).\nThe activity of the various iP300w stereoisomers against NCC-CDS-X1 cells was evaluated. Cultures were treated with serial dilutions, ranging from 0.003 μM to 3.0 μM, for up to 96 hours. In cells treated with iP300w, a significant decrease in cell viability was evident at the lowest concentration (0.003 μM) at 48 and 96 hours (FIG. 3A). The effect was dose- and time-dependent. […] (FIG. 2B and FIG. 9)."}, "Kitra-SRS cells (IGF-1R)": {"tested_on": "Kitra-SRS cells (IGF-1R)", "settings": "cited from earlier work"}}, "data": [{"smiles": "CC(C)C[C@H](NC(=O)[C@H](Cc1ccccc1)NC(=O)c1cnccn1)B(O)O", "note": "[bortezomib]", "values": [{"measurement": "effectiveness in vitro on CDS cell lines", "setting": "CDS cell lines", "value": "some degree of effectiveness in vitro"}]}, {"smiles": "CNC(=O)Nc1ccc2c(c1)CC[C@@]21OC(=O)N(CC(=O)N(Cc2ccc(F)cc2)[C@@H](C)C(F)(F)F)C1=O", "note": "[A-485, reference compound]", "values": [{"measurement": "efficacy against melanoma and NUT midline carcinoma", "setting": "[1]; high MITF-expressing melanoma cell lines and NUT midline carcinoma", "value": "effective against high MITF-expressing melanoma cell lines"}, {"measurement": "effect on proliferation of cancer cell lines", "setting": "[1]; more prominently in those of hematopoietic origin", "value": "suppress proliferation of a wide spectrum of cancer cell lines"}, {"measurement": "inhibition of acetylation by p300 and CBP", "setting": "p300 and CBP", "value": "inhibit acetylation by p300 and CBP both in vitro and in vivo"}, {"measurement": "effect on ETV4 expression at the highest concentration", "setting": "[2]", "value": "notable effect on ETV4"}, {"measurement": "fold less potent than iP300w (from IC50 values)", "setting": "[3]; NCC-CDS-X1, IC50 at 48 and 96 hours", "value": "approximately 200 fold"}, {"measurement": "activity on cell viability", "setting": "[3]; NCC-CDS-X1, up to 96 hours, 0.003 to 3.0 μM", "value": "also showed activity, but at higher concentrations"}]}, {"smiles": "C[C@@H](Oc1cc(-c2cnn(C3CCNCC3)c2)cnc1N)c1c(Cl)ccc(F)c1Cl", "note": "[crizotinib]", "values": [{"measurement": "effectiveness in vitro on CDS cell lines", "setting": "CDS cell lines", "value": "some degree of effectiveness in vitro"}]}, {"smiles": "C[C@]1(O)C[C@@H](c2nc(-c3ccc4ccc(-c5ccccc5)nc4c3)c3c(N)nccn32)C1", "note": "[linsitinib]", "values": [{"measurement": "effect on cell proliferation", "setting": "Kitra-SRS cells (IGF-1R)", "value": "reduced cell proliferation"}]}]}
